# Results taken from PubChem BioAssay (NCI).
#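 These data come from cells grown in 96-well plates and exposed to compound for 48 hours at five concentrations. GI50 is the concentration that inhibits growth by half. The concentration for full growth arrest is given as TGI.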
# Assays:
# Test in all cases: NCI tumour cell line growth inhibition, 48 h
# SK-MEL-5 melanoma = test system: SK-MEL-5 melanoma
# MOLT-4 leukemia = test system: MOLT-4 leukemia
# SK-OV-3 ovarian = test system: SK-OV-3 ovarian
# UACC-257 melanoma = test system: UACC-257 melanoma
# SNB-19 CNS = test system: SNB-19 CNS
# SF-295 CNS = test system: SF-295 CNS
# NCI-H460 lung = test system: NCI-H460 lung
# HT29 colon = test system: HT29 colon
# SK-MEL-28 melanoma = test system: SK-MEL-28 melanoma
# RXF 393 renal = test system: RXF 393 renal
Structure (SMILES),TGI (SK-MEL-5 melanoma) [µM],TGI (MOLT-4 leukemia) [µM],TGI (SK-OV-3 ovarian) [µM],TGI (UACC-257 melanoma) [µM],TGI (SNB-19 CNS) [µM],TGI (SF-295 CNS) [µM],TGI (NCI-H460 lung) [µM],TGI (HT29 colon) [µM],TGI (SK-MEL-28 melanoma) [µM],TGI (RXF 393 renal) [µM],GI50 (SK-MEL-5 melanoma) [µM],GI50 (MOLT-4 leukemia) [µM],GI50 (SK-OV-3 ovarian) [µM],GI50 (UACC-257 melanoma) [µM],GI50 (SNB-19 CNS) [µM],GI50 (SF-295 CNS) [µM],GI50 (NCI-H460 lung) [µM],GI50 (HT29 colon) [µM],GI50 (SK-MEL-28 melanoma) [µM],GI50 (RXF 393 renal) [µM]
C=C1C(=O)O[C@@H]2C(=O)[C@@H](C)[C@@H]3C=CC(=O)[C@@]3(C)[C@@H](OC(=O)/C(C)=C\C)[C@H]12,3.13,2.65,26.9,4.65,25.9,27.4,6.05,1.36,1.01,1.47,,,,,,,,,,
CCN(CC)CCOc1ccc(/C(=C(\C)Cc2ccc(OC)cc2)c2ccc(OC(=O)NCc3ccccc3)cc2)cc1,3.16,5.73,18.7,4.2,11.6,3.3,3.37,4.29,3.44,3.08,1.75,2.11,5.11,2.04,3.5,1.75,1.84,1.89,1.82,1.65
N=C1N(c2ccccc2)C(=O)C23CCCC2C13N1CCOCC1 (configuration not stated),> 100,> 100,> 100,> 100,> 100,> 100,> 100,> 100,> 100,> 100,,,,,,,,,,
CC#CS(=O)(=O)c1ccccc1,15.4,1.43,40.5,12.1,27.2,14.5,38,14.4,12.6,31.8,,,,,,,,,,
COc1cc(-c2cc(=O)c3ccccc3o2)ccc1N,> 100,> 100,> 100,> 100,> 100,> 100,> 100,> 100,> 100,> 100,,,,,,,,,,
NC(=O)N/N=C(\C(=O)C(=O)Nc1ccc(Cl)c(C(F)(F)F)c1)c1nc2ccc(C(=O)c3ccccc3)cc2[nH]c1=O,> 100,> 100,> 100,> 100,> 100,> 100,> 100,> 100,> 100,> 100,,,,,,,,,,
COc1ccc(/C=C2\CN(Cc3cn(CCCNc4ccnc5cc(Cl)ccc45)nn3)C/C(=C\c3ccc(OC)c(OC)c3)C2=O)cc1OC,10.2,6.27,11.1,12,7.62,4.1,2.12,2.38,8.7,3.01,2.71,1.39,2.45,2.24,1.85,2.08,0.806,0.663,2.42,1.56
N#CC(=S)Nc1ccc(Cl)c(Cl)c1,> 51.3,43.5,61.6,> 54.7,> 100,57.8,> 100,55.4,> 62.7,52.4,,,,,,,16,,,
O=C(O)C1NCCc2c1[nH]c1ccccc21 (configuration not stated),> 100,> 100,> 100,> 100,> 100,> 100,> 100,> 100,> 100,> 10,> 100,> 100,> 100,> 100,> 100,,,> 100,> 100,
O=C(Nc1nccs1)c1cc2c(cc1Cl)Sc1nccn1S2(=O)=O,30,42.1,63.9,26.9,37,34.5,29.5,46.7,37.6,39.7,16.5,19.1,24.5,13.9,18.9,18.3,,19.8,20,18.9
CN1CCC[C@@H]1CCO[C@](C)(c1ccccc1)c1ccc(Cl)cc1,2.89,18.1,17.8,4.17,22.2,6.43,17.1,11.3,4.36,13.9,1.54,4.12,4.46,1.9,8.42,2.32,4.94,3.06,2,3.48
O=C1N=C(c2ccccc2)OC1C(=O)c1ccccc1 (configuration not stated),> 100,> 100,> 100,> 100,> 100,> 100,> 100,> 100,> 100,> 100,,,,,,,,,,
ClC1CCC2OOC1O2 (configuration not stated),> 100,> 100,> 100,> 100,> 100,> 100,> 100,> 100,> 100,> 100,,,,,,,,,,
ClCc1ccc(-c2ccc(Cn3cnc4c(Cl)nc(Cl)nc43)cc2)cc1,12.3,6.97,22.6,3.64,4.15,6.5,10.6,3.31,3.1,3.38,2.75,1.95,10.6,1.5,1.95,2.69,3,1.72,1.65,1.67
O=C(Nc1ccccc1)Nc1cccc(-n2cc(-c3ccncc3)c(-c3ccc(O)c(Cl)c3)n2)c1,3.35,9.03,40.7,4.91,> 100,4.73,17.1,4.45,18.6,9.63,1.78,2.92,6.02,2.12,6.27,2.1,3.24,2.27,3.27,2.43
